Legend:
[1] = tested on: cultured mouse olfactory receptor neurons (ORNs); experiment: nystatin perforated-patch voltage-clamp of cultured ORNs; assay type: cell-based; settings: 10 μM ATP
Procedure: The physiological activation of purinergic receptors in cultured mouse ORNs (Vargas and Lucero, 1999a) were examined using both electrophysiology (Danaceau and Lucero, 1998)(FIG. 2A), and calcium imaging (FIG. 2B-E). ATP (10 μM) evoked inward currents in 39% (27/69 ORNs) of the perforated-patched mouse ORNs during brief (1-10 s) applications (FIG. 2A). […] Rapid activation of inward current that closely followed the ATP stimulus profile with little or no desensitization was also observed, indicating involvement of non-desensitizing ionotropic P2X receptors [P2X4 and/or P2X7] (Ralevic and Burnstock, 1998)(FIG. 2A, cell 2) (14/27 cells; latency=81±15 ms, Imax=−235±74 pA). These electrophysiological results support the immunohistochemical evidence of expression of both purinergic receptor subtypes in ORNs.
To prepare olfactory epithelium slices, neonatal mice (postnatal day 0-6) were quickly decapitated, and the skin and lower jaw were removed. Tissue was mounted in ice cold Ringers onto a vibratome-cutting block and 300 μm slices were made. Primary cultures of mouse ORNs were made using the same protocol and culture conditions as described for rat olfactory receptor neurons (Vargas and Lucero, 1999a). Briefly, tissue was placed in divalent cation-free Ringers containing 10 mg/ml bovine serum albumin, 1 mg/ml deoxyribonuclease II and 44 U/ml dispase, incubated at 37° C. for 45 min. The tissue was washed, triturated, and filtered through a […] mesh and […] cells were plated onto concanavalin A-coated coverslips and allowed to settle for 20 min. An additional 1.5 ml of culture medium was added (DMEM supplemented with […] ascorbic acid, 1X insulin-transferrin-seleniumX (GIBCO BRL), 2 mM glutamine, 100 U/ml penicillin G and […] streptomycin).
The nystatin perforated-patch technique (Horn and Marty, 1988) was used to examine cells under voltage-clamp. Electrodes (2-5 MΩ) were filled with TMA-oxide internal solution (in mM: 62.5 TMA oxide, 62.5 KH2PO4, 15 KCl, 5 MgCl2, 11 EGTA, 10 HEPES, 1 glutathione, 5 TEA, 0.03% pluronic acid F-127, 0.3% DMSO, […] nystatin, pH 7.2, 330 mOsm).

[2] = tested on: ORNs in neonatal mouse OE slices; experiment: on-cell current-clamp recording of cyclic nucleotide-induced electrical responses; assay type: cell-based; settings: 10 μM ATP co-applied with cyclic nucleotide mixture (IBMX, CPT-cAMP, 8-Br-cGMP), n=3 cells
Procedure: Filled triangles correspond to the time of loop injection of the test solutions. […] Various test solutions were superfused onto the slice for 30 seconds, indicated by the shaded region. The cell was allowed to recover for 7 minutes after each test application. Note that the coapplication of ATP (10 μM) and the mixture suppressed the evoked membrane potential changes. […] N=3 from three slices, also indicated in each column.
Electro-olfactogram and on-cell recordings: Slices of P0-P6 mouse OE were prepared as described above and mounted in a perfusion chamber with a bath flow of […]. Test chemicals were introduced using a rotary injection valve (Rheodyne, Cotati, Calif.). The electro-olfactogram (EOG) recording electrode (3 M NaCl in 1% agar; tip diameter, 5-10 um) was positioned along the dorsal portion of the nasal septum. The differential electrode (identical to the recording electrode) was positioned over skull cartilage and an […] ground electrode was connected to the bath solution via a 3 M KCl agar bridge. […]
For the noninvasive on-cell recordings (Chiu et al., 1997), the same electronics were used as described for nystatin-patch experiments. […] The time course of solution delivery was determined by placing an electrode in a slice and switching from Ringer's solution to distilled water. […]

[3] = cells with long latent period (P2Y-like), 13/27 cells
[4] = rapidly activating cells (P2X-like), 14/27 cells

Nc1ncnc2c1ncn2[C@@H]1O[C@H](COP(=O)(O)OP(=O)(O)OP(=O)(O)O)[C@@H](O)[C@H]1O [ATP, Adenosine 5′-triphosphate]
ORNs in which ATP evoked inward currents ([1]; brief (1-10 s) applications, perforated-patched mouse ORNs, 27/69 ORNs): 39%
Imax [1, 3]: −29±8 pA
latency of inward current [1, 3]: 1140 ± 236 ms
Imax [1, 4]: −235±74 pA
latency of inward current [1, 4]: 81 ± 15 ms
reduction of the electrical activity of the ORN [2]: 67±2%

— patent US7557092B2, “Purinergic modulation of smell” (University of Utah Research Foundation, priority 2002, dated 2009)
